In patent US7544693B2 (priority 2003, dated 2009):
pKd: −log10 of the molar value.

Target: α7 nAChR subtype (Rattus norvegicus, UniProt Q05941)
Type: binding
Conditions: read-out: KD of radioligand (saturation curves, one site model)

Sequence of α7 nAChR subtype (Q05941 23-502 limits assumed): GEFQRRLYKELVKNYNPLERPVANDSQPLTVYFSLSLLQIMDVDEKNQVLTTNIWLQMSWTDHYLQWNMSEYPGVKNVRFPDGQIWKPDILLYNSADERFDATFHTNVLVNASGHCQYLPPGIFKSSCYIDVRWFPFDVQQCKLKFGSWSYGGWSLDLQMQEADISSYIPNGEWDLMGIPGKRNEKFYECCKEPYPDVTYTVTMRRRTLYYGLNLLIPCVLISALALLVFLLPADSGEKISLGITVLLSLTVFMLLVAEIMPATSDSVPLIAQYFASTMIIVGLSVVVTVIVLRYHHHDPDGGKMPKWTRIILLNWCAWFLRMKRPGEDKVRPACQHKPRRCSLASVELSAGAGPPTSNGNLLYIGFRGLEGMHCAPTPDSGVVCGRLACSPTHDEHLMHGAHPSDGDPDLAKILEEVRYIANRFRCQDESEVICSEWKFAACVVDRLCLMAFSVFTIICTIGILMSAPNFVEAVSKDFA

[^125I]-α-Bungarotoxin [[^125I]-α-BTX]
pKd: 8.78
